Tests used:
[1] = system: LCMV-CL13; design: species or system mice (C57BL/6); settings: mouse, in vivo
[2] = system: LCMV-CL13; design: species or system mice (C57BL/6); settings: mouse, in vivo; remark: listed apart in the source
[3] = system: P14+ CD8 T cells; type: cell-based, mice

Compound	number of virus-specific CD8+ T cells [1]	INFγ, TNFα, and IL-2 production by CD8+ T cells stimulated with LCMV peptides GP276, GP33 and NP396 [2]	inhibition of TNF-α and IL-2 production [3]	production of IFN-γ, TNF-α and IL-2 (all three cytokines) [3]	effect on cytokine production ([3]; EP2/4 DKO P14+ CD8 T cells, 40 μM PGE2)
CCc1nc2c(C)nc(C)cc2n1-c1ccc(CCNC(=O)NS(=O)(=O)c2ccc(C)cc2)cc1 [CJ-23423]	increased	increased	–	–	–
CCCCc1nn(-c2ccccc2C(F)(F)F)c(=O)n1Cc1ccc(-c2ccccc2S(=O)(=O)NC(=O)c2sccc2C)cc1 [L161,982]	increased	increased	–	–	–
COc1ccc2cc(OCC3(C(=O)O)CN(C(=O)c4ccc(F)cc4)C3)ccc2c1 [PF-04418948]	increased	increased	–	–	–
CC(C)Oc1ccc2c(=O)c3cc(C(=O)O)ccc3oc2c1 [AH6809]	increased	increased	–	–	–
CCCCC[C@H](O)/C=C/[C@H]1[C@H](O)CC(=O)[C@@H]1C/C=C\CCCC(=O)O [PGE2]	–	–	75-80%	suppressed	very little effect

From patent US20150004175A1, “Compositions and Methods for Reducing CTL Exhaustion” (priority 2011, published 2015)
